Experiments:
[1] = system: TNFα release from THP-1 cells; experiment: TNFα release from LPS-stimulated THP-1 cells; assay type: cell-based; details: Homo sapiens, THP-1, 18 h, LPS 10 μg/ml, 18 hours; read-out: TNFα (THP-1) IC50
In short: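 THP-1 cells (10^6 cells/ml on resuspension) preincubated with compound 30 min at 37°C, 5% CO2, final DMSO ≤0.5%, then stimulated with 10 μg/ml LPS for 18 h (TNFα). Supernatants collected for TNFα analysis.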

p38α = target: T1, p38α (Homo sapiens, UniProt Q16539); experiment: p38 MAP Kinase assay, ATF2 phosphorylation (ELISA); assay type: biochemical; details: 40 μM ATP
T1 construct: p38 MAP Kinases are recombinant human full-length proteins with an amino-terminal GST fusion; GST (N); purchased Upstate (Charlottesville, Va.); host or cells: E. coli
T1 sequence (Q16539 whole entry, the tested form may be a part): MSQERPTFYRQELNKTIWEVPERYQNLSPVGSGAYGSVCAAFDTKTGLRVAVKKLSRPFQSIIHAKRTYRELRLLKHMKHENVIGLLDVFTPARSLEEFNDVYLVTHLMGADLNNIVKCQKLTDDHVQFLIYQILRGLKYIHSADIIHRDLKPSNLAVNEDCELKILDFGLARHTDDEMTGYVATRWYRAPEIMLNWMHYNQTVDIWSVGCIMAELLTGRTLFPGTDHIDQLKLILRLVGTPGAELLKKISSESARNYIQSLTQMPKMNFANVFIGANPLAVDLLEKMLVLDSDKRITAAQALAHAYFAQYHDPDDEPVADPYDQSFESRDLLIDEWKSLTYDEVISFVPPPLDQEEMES
In short: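 Recombinant full-length GST-tagged human p38α (6 ng) pre-incubated 15 min at room temperature with compound, then reacted 30 min at 37° C with 40 μM ATP and 1.25 μM GST-ATF2 (aa 19-96) in HEPES pH 7.5/MgCl2 buffer. EDTA stop; ATF2 Thr69 phosphorylation measured by anti-phospho-ATF2 ELISA at 450 nm.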

IC50 [1] [nM]	IC50 (p38α) [nM]	Compound
58.5	8.96	OC(CNc1nccc(-c2c(-c3ccc(F)cc3)nc3occn23)n1)c1ccccc1 (stereo not shown) [LVII]
96.9	14	Fc1ccc(-c2nc3occn3c2-c2ccnc(NCCCn3ccnc3)n2)cc1 [LVI]
25	23.1	OCCCCCCNc1nccc(-c2c(-c3ccc(F)cc3)nc3occn23)n1 [LV]
87.4	38.5	C[C@H](Nc1nccc(-c2c(-c3ccc(F)cc3)nc3occn23)n1)[C@H](O)c1ccccc1 [LXIII]
258	453	O=C1OCC[C@H]1Nc1nccc(-c2c(-c3ccc(F)cc3)nc3occn23)n1 [LXII]
13.2	174	CC[C@H](C)[C@@H](CO)Nc1nccc(-c2c(-c3ccc(F)cc3)nc3occn23)n1 [LXIV]
11.4	83.3	O[C@H]1CCCC[C@@H]1Nc1nccc(-c2c(-c3ccc(F)cc3)nc3occn23)n1 [LXIX]
140	79.1	C[C@@H](Nc1nccc(-c2c(-c3ccc(F)cc3)nc3occn23)n1)[C@@H](O)c1ccccc1 [LXVIII]
177	33.4	O=C1CCCN1CCCNc1nccc(-c2c(-c3ccc(F)cc3)nc3occn23)n1 [LXVII]
193	75.9	Fc1ccc(-c2nc3occn3c2-c2ccnc(NCCN3CCOCC3)n2)cc1 [LXVI]
26.3	86.6	CCCC[C@@H](CO)Nc1nccc(-c2c(-c3ccc(F)cc3)nc3occn23)n1 [LXV]
96.6	234	Fc1ccc(-c2nc3occn3c2-c2ccnc(NCc3ccncc3)n2)cc1 [LXXIII]
519	72.8	COc1ccc(CNc2nccc(-c3c(-c4ccc(F)cc4)nc4occn34)n2)cc1OC [LXXIV]
58.4	342	COc1cccc(CNc2nccc(-c3c(-c4ccc(F)cc4)nc4occn34)n2)c1OC [LXXIX]
318	370	OCCN(CCO)CCNc1nccc(-c2c(-c3ccc(F)cc3)nc3occn23)n1 [LXXVIII]
41.2	6.72	C[C@@H](Nc1nccc(-c2c(-c3ccc(F)cc3)nc3occn23)n1)[C@@H](O)c1ccc(O)cc1 [LXXVI]
26.6	5.09	Oc1cccc(C(O)CNc2nccc(-c3c(-c4ccc(F)cc4)nc4occn34)n2)c1 (stereo not shown) [LXXV]
346	185	OC[C@@H](Nc1nccc(-c2c(-c3ccc(F)cc3)nc3occn23)n1)[C@H](O)c1ccccc1 [LXXXIII]
50.5	184	CC(CO)(CO)Nc1nccc(-c2c(-c3ccc(F)cc3)nc3occn23)n1 [LXXXII]
599	253	NCCNc1nccc(-c2c(-c3ccc(F)cc3)nc3occn23)n1 [LXXXIX]
1230	1230	CS(=O)(=O)c1ccc(CNc2nccc(-c3c(-c4ccc(F)cc4)nc4occn34)n2)cc1 [LXXXI]
87	39.9	Fc1ccc(-c2nc3occn3c2-c2ccnc(NCC3CCCNC3)n2)cc1 (stereo not shown) [LXXXVIII]
150	227	OCC(CO)(CO)Nc1nccc(-c2c(-c3ccc(F)cc3)nc3occn23)n1 [LXXXVI]
39.3	66.3	Fc1ccc(-c2nc3occn3c2-c2ccnc(NCc3cccnc3)n2)cc1 [LXXXV]
88.4	82.5	Oc1ccc(C(O)CNc2nccc(-c3c(-c4ccc(F)cc4)nc4occn34)n2)cc1 (stereo not shown) [LXXX]
12.2	3.33	CCOC(=O)N1CCC(Nc2nccc(-c3c(-c4ccc(F)cc4)nc4occn34)n2)CC1 [LXX]
69.7	20.5	CCCCC(CO)Nc1nccc(-c2c(-c3ccc(F)cc3)nc3occn23)n1 (stereo not shown) [LX]
125	86.6	CC(C)C[C@H](CO)Nc1nccc(-c2c(-c3ccc(F)cc3)nc3occn23)n1 [L]
457	120	OCCN(CCO)c1nccc(-c2c(-c3ccc(F)cc3)nc3occn23)n1 [XCIII]

From patent US20070270418A1, “Inhibitors of P38 and Methods of Using the Same” (priority 2003, published 2007)
